From patent US5807875A, “Amino acid derivatives, pharmaceutical compositions containing these compounds and processes for preparing them” (Dr. Karl Thomae GmbH, priority 1993, dated 1998) come the findings set out here.

Data set [1] addresses T1, NPY-Y1 receptor (Homo sapiens, UniProt P25929).
T1 construct: SK-N-MC cells (expressing the human Y1 -receptor); endogenous in cells; host or cells: SK-N-MC (human cell line), whole cells in suspension
T1 sequence (P25929 1-384): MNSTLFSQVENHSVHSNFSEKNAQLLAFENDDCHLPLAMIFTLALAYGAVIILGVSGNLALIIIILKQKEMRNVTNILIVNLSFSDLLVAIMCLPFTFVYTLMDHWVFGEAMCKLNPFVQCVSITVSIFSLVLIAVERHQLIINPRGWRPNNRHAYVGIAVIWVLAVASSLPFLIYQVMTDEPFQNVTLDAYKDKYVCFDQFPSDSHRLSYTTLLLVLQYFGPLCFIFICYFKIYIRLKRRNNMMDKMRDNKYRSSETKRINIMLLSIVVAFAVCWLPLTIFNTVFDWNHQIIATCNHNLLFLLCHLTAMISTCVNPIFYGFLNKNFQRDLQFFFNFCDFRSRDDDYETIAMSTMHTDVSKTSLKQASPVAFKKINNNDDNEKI
As to the kind of experiment: Studies of binding with SK-N-MC cells (displacement of [^125 I]-Bolton-Hunter-NPY). The conditions noted are these: SK-N-MC cells expressing the human Y1-receptor, 3 hours at ambient temperature. The protocol: A. Studies of binding with SK-N-MC cells (expressing the human Y1 -receptor)
Incubation is ended by centrifuging (10 minutes at 3000×gand 4° C.). After washing once with PBS, the radioactivity of the pellet is measured in a gamma counter. […] The proportion of non-specific binding is defined as that radioactivity which is bound in the presence of 1 μM NPY. The IC50 values of the unlabelled test substances are determined graphically.

Data set [2] concerns NPY-induced blood pressure effects. Briefly: In vivo NPY-antagonism (pithed rats). The conditions noted are these: Rattus norvegicus, iv, 1 min, inhibition of increase in diastolic blood pressure by NPY (10 μg/kg, i.v.), NPY given one minute after test substance, read-out: pID50 (the source's name) (converted). The protocol: C. In vivo NPY-antagonism
Male rats of normal blood pressure (Chbb:THOM, 300 to 350 g) are anaesthetised with sodium hexobarbital (150 mg/kg, i.p.). After intubation of the trachea the animals are pithed by introducing a blunt needle through the eye into the spinal bone marrow channel. The animals are ventilated with oxygen-rich ambient air using a respiratory pump (20 strokes/minute). A cannula is inserted in the left carotid artery and the arterial blood pressure is measured using a pressure gauge (Braun Melsungen Combitrans) connected to a recording device. For injection purposes a catheter is placed in the left jugular vein through which heparin is administered (200 IU/kg, i.v.). After the blood pressure has been stabilised, the animals are given 2 bolus injections of NPY (10 μg/kg, i.v.) at intervals of 15 minutes. The average increase in diastolic blood pressure is taken as the reference value (=100%). The test substances are injected in increasing doses (4 to 6 doses) at intervals of 15 minutes. One minute after administration of the test substance, NPY is administered.
The antagonistic effect of the test substances is determined by plotting the percentage inhibition of the NPY-induced blood pressure effects against the logarithm of the concentration of active substance.

Data set [3] deals with NPY activity. As to the kind of experiment: NPY-antagonism in vitro (isolated perfused rat kidney). The conditions noted are these: inhibition of NPY (1 μM bolus) induced pressure increase, 5 minute infusion of compound. On the procedure: B. NPY-antagonism in vitro
Male rats (CHbb: THOM, 300 to 350 g) are given heparin (100 IU, i.v.) and the animals are then killed by a blow to the back of the neck. The abdomen is opened along the centre of the body and the left kidney is removed after the insertion of catheters in the renal artery, renal vein and ureter. The isolated kidney is immediately perfused with a modified Krebs-Ringer solution having the following composition (4 ml/minute):
A mixture of 95% O2 /5% CO2 is passed through the solution which is kept at a temperature of 37° C. The perfusion pressure is measured continuously using a pressure gauge. After a 60 minute stabilisation period the perfusion rate is adjusted so as to obtain a perfusion pressure of approximately 100 mm Hg. After a further 30 minutes the experiment is started and NPY (1 μM) is administered as a bolus (0.1 ml) at 15 minute intervals until the pressure increase observed reaches a constant value. The compounds to be tested are given in the form of a continuous infusion over a period of 5 minutes and then NPY is injected. After a 30 minute wash-out period the next highest concentration of test substance is investigated. 3 to 5 different concentrations of the particular compound are tested on each occasion. Concentration/activity curves can be obtained by plotting the percentage inhibition of the NPY activity against the logarithm of the concentration (mol/l) of the compound.

Data set [4] is described as follows: Solubility.

Usually IC50 stands for the concentration needed to halve the response being measured. A high value points to a need for much substance. Molecule `N=C(N)NCCC[C@@H](NC(=O)C(c1ccc(Br)cc1)c1ccc(Br)cc1)C(=O)NCc1ccc(O)cc1` [A] had a half-maximal inhibitory concentration (IC50) in data set [1] of 1.8 nM.

`N=C(N)NCCC[C@@H](NC(=O)C(c1ccccc1)c1ccccc1)C(=O)NCc1ccc(CCO)cc1` [B] came in with a half-inhibitory concentration (IC50) in data set [1] of 7.7 nM.

Turning to `N=C(N)NCCC[C@@H](NC(=O)C(c1ccccc1)c1ccccc1)C(=O)NCc1ccc(O)cc1` [C], in data set [2], the ED50 is 0.186 µmol/kg. Moreover, in data set [3], the pIC50 is recorded as 7.15 mol/l.

In the case of `N=C(N)NCCC[C@@H](NC(=O)C(c1ccccc1)c1ccccc1)C(=O)NCc1ccc(CO)cc1` [D], in data set [1], the IC50 amounted to 13.5 nM.

`Cc1cc(CNC(=O)C(CCCNC(=N)N)NC(=O)C(c2ccccc2)c2ccccc2)ccc1O` (stereo not drawn) [E] showed an IC50 in data set [1] of 10 nM.

Turning to `N=C(N)NCCC[C@@H](NC(=O)C(c1ccccc1)c1ccccc1)C(=O)NCc1ccc(CN)cc1.O=C(O)C(F)(F)F.O=C(O)C(F)(F)F` [Example 128, (R)-N-[[4-(Aminomethyl)phenyl]methyl]-N^2-(diphenylacetyl)-argininamide-bis-(trifluoroacetate)], in data set [4] (dichloromethane), the solubility in dichloromethane entry is “readily soluble”. In data set [4] (dimethylsulphoxide), the solubility in dimethylsulphoxide entry is “readily soluble”. Besides, in data set [4] (methanol), the solubility in methanol entry is given as “readily soluble”. Further, the solubility in water result in data set [4] (water) is “readily soluble”.

For `N=C(N)c1cccc(CC(NC(=O)C(c2ccccc2)c2ccccc2)C(=O)NCc2ccc(O)cc2)c1` (stereo not drawn) [F], the ED50 in data set [2] was 0.151 µmol/kg. Moreover, the IC50 in data set [1] came to 11.3 nM. In data set [3], this molecule gave a pIC50 of 7.70 mol/l.

`CN(Cc1ccc(O)cc1)C(=O)[C@@H](CCCNC(=N)N)NC(=O)C(c1ccccc1)c1ccccc1` [G] displayed an IC50 in data set [1] of 25.3 nM.

In data set [1], `O=C(NCc1ccc(O)cc1)C(CCCNc1ncc[nH]1)NC(=O)C(c1ccccc1)c1ccccc1` (stereo not drawn) [H] displayed an IC50 of 18 nM.

`Cc1cc(CNC(=O)C(CCCNC(=N)N)NC(=O)C(c2ccccc2)c2ccccc2)cc(C)c1O` (stereo not drawn) [I] yielded an IC50 in data set [1] of 26 nM.

With `COc1ccc(CNC(=O)C(CCCNC(=N)N)NC(=O)C(c2ccccc2)c2ccccc2)cc1` (stereo not drawn) [K], the ED50 in data set [2] is 0.331 µmol/kg. The molecule further displayed a half-inhibitory concentration (IC50) in data set [1] of 32 nM. The molecule also returned a pIC50 in data set [3] of 6.70 mol/l.

In data set [1], `CC1(C)NC(=O)N(Cc2ccc(CNC(=O)[C@@H](CCCNC(=N)N)NC(=O)C(c3ccccc3)c3ccccc3)cc2)C1=O` [L] had an IC50 of 26.8 nM.

For the molecule `O=C(NC(CCCNc1ncc[nH]1)C(=O)NCc1ccc(O)cc1)c1ccc2ccccc2c1` (stereo not drawn) [M], the half-inhibitory concentration (IC50) in data set [1] is 80.5 nM.

Turning to `O=C(Nc1ccc2ccccc2c1)NC(CCCNc1ncc[nH]1)C(=O)NCc1ccc(O)cc1` (stereo not drawn) [N], the IC50 in data set [1] amounted to 85.5 nM.

For `O=C(NCc1ccc(O)cc1)C(Cc1ccc(C2=NCCN2)cc1)NC(=O)C(c1ccccc1)c1ccccc1` (stereo not drawn) [O], the concentration for half-maximal inhibition (IC50) in data set [1] was determined as 207 nM.

Consider `N=C(N)CCCCC(NC(=O)C(c1ccccc1)c1ccccc1)C(=O)NCc1ccc(O)cc1` (stereo not drawn) [P], for which the IC50 in data set [1] was 39 nM.
